Reference: US6737383B1, “Herbicidal oxadiazolidines” (priority 1999, dated 2004)

Experiments:
[1] = system: soybean; assay: Test B pre/postemergence soybean; format: in vivo, Glycine max; details: Preemergence, scale of 0 to 10 where 0 is no effect and 10 is complete control
In short: (§1)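 Herbicidal effect was estimated by eye on a ten-point control scale after plants spent twelve to sixteen days in a greenhouse following soil or foliar treatment. Foliar sprays targeted plants at one to four leaves; all doses were formulated in a non-phytotoxic solvent with surfactant.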

[2] = system: cocklebur; assay: Test B pre/postemergence cocklebur; format: in vivo, Xanthium strumarium; details: Preemergence
In short: as §1

[3] = system: sugar beet; assay: Test B pre/postemergence sugar beet; format: in vivo, Beta vulgaris; details: Preemergence, scale of 0 to 10 where 0 is no effect and 10 is complete control
In short: as §1

[4] = system: crabgrass; assay: Test B pre/postemergence crabgrass; format: in vivo, Digitaria sanguinalis; details: Preemergence
In short: as §1

[5] = system: wild oat; assay: Test B pre/postemergence wild oat; format: in vivo, Avena fatua; details: Preemergence, scale of 0 to 10 where 0 is no effect and 10 is complete control
In short: as §1

[6] = system: giant foxtail; assay: Test B pre/postemergence giant foxtail; format: in vivo, Setaria faberii; details: Preemergence, scale of 0 to 10 where 0 is no effect and 10 is complete control
In short: as §1

[7] = system: bedstraw; assay: Test B pre/postemergence bedstraw; format: in vivo, Galium aparine; details: Preemergence
In short: as §1

[8] = system: purple nutsedge; assay: Test B pre/postemergence purple nutsedge; format: in vivo, Cyperus rotundus; details: Preemergence, scale of 0 to 10 where 0 is no effect and 10 is complete control
In short: as §1

[9] = system: corn; assay: Test B pre/postemergence corn; format: in vivo, Zea mays; details: Preemergence
In short: as §1

[10] = system: wheat; assay: Test B pre/postemergence wheat; format: in vivo, Triticum aestivum; details: Preemergence, scale of 0 to 10 where 0 is no effect and 10 is complete control
In short: as §1

[11] = system: velvetleaf; assay: Test B pre/postemergence velvetleaf; format: in vivo, Abutilon theophrasti; details: Preemergence, scale of 0 to 10 where 0 is no effect and 10 is complete control
In short: as §1

[12] = system: surinam grass; assay: Test B pre/postemergence surinam grass; format: in vivo, Brachiaria decumbens; details: Preemergence
In short: as §1

[13] = system: morningglory; assay: Test B pre/postemergence morningglory; format: in vivo, Ipomoea hederacea; details: Preemergence, scale of 0 to 10 where 0 is no effect and 10 is complete control
In short: as §1

[14] = system: rape; assay: Test B pre/postemergence rape; format: in vivo, Brassica napus; details: Preemergence, scale of 0 to 10 where 0 is no effect and 10 is complete control
In short: as §1

[15] = system: pigweed; assay: Test B pre/postemergence pigweed; format: in vivo, Amaranthus retroflexus; details: Preemergence, scale of 0 to 10 where 0 is no effect and 10 is complete control
In short: as §1

[16] = system: blackgrass; assay: Test B pre/postemergence blackgrass; format: in vivo, Alopecurus myosuroides; details: Preemergence
In short: as §1

[17] = Rate 62 g/ha, scale of 0 to 10 where 0 is no effect and 10 is complete control
[18] = Rate 125 g/ha, scale of 0 to 10 where 0 is no effect and 10 is complete control
[19] = Rate 250 g/ha, scale 0 to 10 (0 no effect, 10 complete control)
[20] = Rate 500 g/ha, scale of 0 to 10 where 0 is no effect and 10 is complete control

SMILES: CCn1ncc(Cn2c(=O)on(C(=O)N(c3ccc(F)cc3F)C(C)C)c2=O)c1Cl [Compound 682]
- Soybean plant response rating ([1]; Rate 62 g/ha): 0
- Plant response rating, Soybean ([1]; Rate 125 g/ha): 0
- Plant response rating, Soybean ([1]; Rate 500 g/ha): 0
- Cocklebur plant response rating [2, 17]: 0
- Plant response rating, Cocklebur [2, 18]: 0
- Plant response rating, Cocklebur [2, 19]: 0
- Plant response rating, Cocklebur [2, 20]: 0
- Sugarbeets plant response rating ([3]; Rate 62 g/ha): 0
- Plant response rating, Sugarbeets ([3]; Rate 125 g/ha): 0
- Plant response rating, Sugarbeets ([3]; Rate 500 g/ha): 7
- Crabgrass plant response rating [4, 17]: 5
- Plant response rating, Crabgrass [4, 18]: 9
- Plant response rating, Crabgrass [4, 19]: 9
- Plant response rating, Crabgrass [4, 20]: 9
- Wild oats plant response rating ([5]; Rate 62 g/ha): 0
- Plant response rating, Wild oats ([5]; Rate 125 g/ha): 0
- Plant response rating, Wild oats ([5]; Rate 500 g/ha): 8
- Giant foxtail plant response rating ([6]; Rate 62 g/ha): 9
- Plant response rating, Giant foxtail ([6]; Rate 125 g/ha): 10
- Plant response rating, Giant foxtail ([6]; Rate 500 g/ha): 10
- Bedstraw plant response rating [7, 17]: 0
- Plant response rating, Bedstraw [7, 18]: 0
- Plant response rating, Bedstraw [7, 19]: 0
- Plant response rating, Bedstraw [7, 20]: 0
- Nutsedge plant response rating ([8]; Rate 62 g/ha): 0
- Plant response rating, Nutsedge ([8]; Rate 125 g/ha): 0
- Plant response rating, Nutsedge ([8]; Rate 500 g/ha): 0
- Corn plant response rating [9, 17]: 0
- Plant response rating, Corn [9, 18]: 0
- Plant response rating, Corn [9, 19]: 0
- Plant response rating, Corn [9, 20]: 0
- Wheat plant response rating ([10]; Rate 62 g/ha): 0
- Plant response rating, Wheat ([10]; Rate 125 g/ha): 0
- Plant response rating, Wheat ([10]; Rate 500 g/ha): 0
- Velvetleaf plant response rating ([11]; Rate 62 g/ha): 0
- Plant response rating, Velvetleaf ([11]; Rate 125 g/ha): 0
- Plant response rating, Velvetleaf ([11]; Rate 500 g/ha): 0
- B. signalgrass plant response rating [12, 17]: 2
- Plant response rating, B. signalgrass [12, 18]: 6
- Plant response rating, B. signalgrass [12, 19]: 7
- Plant response rating, B. signalgrass [12, 20]: 8
- Morningglory plant response rating ([13]; Rate 62 g/ha): 0
- Plant response rating, Morningglory ([13]; Rate 125 g/ha): 0
- Plant response rating, Morningglory ([13]; Rate 500 g/ha): 3
- Rape plant response rating ([14]; Rate 62 g/ha): 0
- Plant response rating, Rape ([14]; Rate 125 g/ha): 0
- Plant response rating, Rape ([14]; Rate 500 g/ha): 7
- Redroot pigweed plant response rating ([15]; Rate 62 g/ha): 4
- Plant response rating, Redroot pigweed ([15]; Rate 125 g/ha): 4
- Plant response rating, Redroot pigweed ([15]; Rate 500 g/ha): 7
- Blackgrass plant response rating [16, 17]: 3
- Plant response rating, Blackgrass [16, 18]: 5
- Plant response rating, Blackgrass [16, 19]: 8
- Plant response rating, Blackgrass [16, 20]: 9
